Experimental findings from patent US8501786B2, “Hydroxymethyl pyrrolidines as beta 3 adrenergic receptor agonists” (Merck Sharp & Dohme Corp., priority 2009, dated 2013) are described below.

SMILES strings stand for the structures. pEC50: −log10 of the molar value. Some results are limits rather than exact numbers.

This test deals with T1, human β3 adrenergic receptor (Homo sapiens, UniProt P13945).
T1 construct: stably transfected with the cloned β-adrenergic receptor (β1, β2 or β3); expressed in transfected cells; host or cells: Chinese hamster ovary (CHO) cells, stably transfected
In words: Functional assay: cAMP production (LANCE TR-FRET) in CHO cells stably transfected with cloned β3 adrenergic receptor. Format: cell-based. The conditions noted are these: Table 3; cAMP production, CHO cells expressing human β3 AR; read-out: Human β3 functional. The protocol: Functional Assay: cAMP production in response to ligand is measured according to Barton, et al. (1991, Agonist-induced desensitization of D2 dopamine receptors in human Y-79 retinoblastoma cells. Mol. Pharmacal. v3229:650-658) modified as follows, cAMP production is measured using a homogenous time-resolved fluorescence resonance energy transfer immunoassay (LANCE™, Perkin Elmer) according to the manufacture's instructions. Chinese hamster ovary (CHO) cells, stably transfected with the cloned β-adrenergic receptor (β1, β2 or β3) are harvested after 3 days of subculturing. Harvesting of cells is done with Enzyme-free Dissociation Media (Specialty Media). Cells are then counted and resuspended in assay buffer (Hank's Balanced salt solution supplemented with 5 mM HEPES, […]) containing a phosphodiesterase inhibitor (IBMX, 0.6 mM). The reaction is initiated by mixing 6,000 cells in 6 μL with 6 μL Alexa Fluor labeled cAMP antibody (LANCE™ kit) which is then added to an assay well containing 12 μL of compound (diluted in assay buffer to 2× final concentration). The reaction proceeds for 30 min at room temperature and is terminated by the addition of 24 ul detection buffer (LANCE™ kit). The assay plate is then incubated for 1 h at room temperature and time-resolved fluorescence measured on a Perkin Elmer Envision reader or equivalent. The unknown cAMP level is determined by comparing fluorescence levels to a cAMP standard curve.
The non-selective, full agonist β-adrenergic ligand isoproterenol is used at all three receptors to determine maximal stimulation. The human β3 adrenergic receptor (AR) selective ligand (S)-N-[4-[2-[[2-hydroxy-3-(4-hydroxyphenoxy)propyl]amino]ethyl]-phenyl]-4-iodobenzenesulfonamide is used as a control in all assays. Isoproterenol is titrated at a final concentration in the assay of 10^-10 M to 10-5 and the selective ligand (S)-N-[4-[2-[[2-hydroxy-3-(4-hydroxyphenoxy)propyl]amino]ethyl]phenyl]-4-iodobenzenesulfonamide is titrated at the β3 receptor at concentration of 10^-10 M to 10^-5 M. Unknown ligands are titrated at all 3 β-adrenergic receptor subtypes at a final concentration in the assay of 10^-10 M to 10^-5 M to determine the EC50. The EC50 is defined as the concentration of compound that gives 50% activation of its own maximum. Data are analyzed using Microsoft Excel and Graphpad Prism or an internally developed data analysis software package.

T1 sequence (P13945 whole entry): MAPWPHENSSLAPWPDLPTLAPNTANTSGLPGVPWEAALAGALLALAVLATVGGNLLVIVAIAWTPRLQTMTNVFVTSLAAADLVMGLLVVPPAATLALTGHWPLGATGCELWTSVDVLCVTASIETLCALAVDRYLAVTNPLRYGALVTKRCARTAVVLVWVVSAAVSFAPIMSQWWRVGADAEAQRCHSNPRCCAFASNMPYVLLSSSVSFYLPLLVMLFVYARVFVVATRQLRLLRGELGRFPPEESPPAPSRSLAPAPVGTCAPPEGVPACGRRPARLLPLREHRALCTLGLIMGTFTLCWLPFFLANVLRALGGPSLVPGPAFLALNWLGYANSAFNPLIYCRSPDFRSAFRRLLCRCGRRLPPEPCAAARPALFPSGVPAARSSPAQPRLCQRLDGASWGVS

On to `CC(C(=O)Nc1ccc(CC2CC[C@H]([C@H](O)c3cccnc3)N2)cc1)c1csc(C(F)(F)F)n1` (single isomer, unassigned) [Example 111], for which the pEC50 was 7.00 to 7.96.

Regarding `CC(C(=O)Nc1ccc(CC2CC[C@H]([C@H](O)c3cccnc3)N2)cc1)c1csc(C(F)(F)F)n1` (single isomer, unassigned) [Example 112], the pEC50 is 6.00 to 7.00.

With `Nc1nc2c(s1)CCC2C(=O)Nc1ccc(CC2CC[C@H]([C@H](O)c3cccnc3)N2)cc1` (single isomer, unassigned) [Example 113], the pEC50 was greater than 9.00.

For the molecule `Nc1nc2c(s1)CCC2C(=O)Nc1ccc(CC2CC[C@H]([C@H](O)c3cccnc3)N2)cc1` (single isomer, unassigned) [Example 114], the pEC50 is 7.00 to 7.96.

`Cc1nc2c(s1)CCC2C(=O)Nc1ccc(CC2CC[C@H]([C@H](O)c3cccnc3)N2)cc1` (single isomer, unassigned) [Example 115]: the pEC50 was 8.00 to 9.00.

As for `Cc1nc2c(s1)CCC2C(=O)Nc1ccc(CC2CC[C@H]([C@H](O)c3cccnc3)N2)cc1` (single isomer, unassigned) [Example 116], the pEC50 is 6.00 to 7.00.

With `Cc1nc2c(s1)CCC2C(=O)Nc1ccc(CC2CC[C@H]([C@H](O)c3cccnc3)N2)cc1` (single isomer, unassigned) [Example 117], the pEC50 was 7.00 to 7.96.

For the molecule `Cc1nc2c(s1)CCC2C(=O)Nc1ccc(CC2CC[C@H]([C@H](O)c3cccnc3)N2)cc1` (single isomer, unassigned) [Example 118], the pEC50 is 6.00 to 7.00.

In the case of `CCc1nc2c(s1)CCC2C(=O)Nc1ccc(CC2CC[C@H]([C@H](O)c3cccnc3)N2)cc1` (single isomer, unassigned) [Example 119], the pEC50 is 6.00 to 7.00.

For `CCc1nc2c(s1)CCC2C(=O)Nc1ccc(CC2CC[C@H]([C@H](O)c3cccnc3)N2)cc1` (single isomer, unassigned) [Example 120], the pEC50 is 7.00 to 7.96.

With `O=C(Nc1ccc(CC2CC[C@H]([C@H](O)c3cccnc3)N2)cc1)C1CCc2sc(C3CC3)nc21` (single isomer, unassigned) [Example 121], the pEC50 was 7.00 to 7.96.

For the molecule `O=C(Nc1ccc(CC2CC[C@H]([C@H](O)c3cccnc3)N2)cc1)C1CCc2sc(C3CC3)nc21` (single isomer, unassigned) [Example 122], the pEC50 was 6.00 to 7.00.

For `CC(C)c1nc2c(s1)CCC2C(=O)Nc1ccc(CC2CC[C@H]([C@H](O)c3cccnc3)N2)cc1` (single isomer, unassigned) [Example 123], the pEC50 was 6.00 to 7.00.

In the case of `CC(C)c1nc2c(s1)CCC2C(=O)Nc1ccc(CC2CC[C@H]([C@H](O)c3cccnc3)N2)cc1` (single isomer, unassigned) [Example 124], the pEC50 is 7.00 to 7.96.

In the case of `COCc1nc2c(s1)CCC2C(=O)Nc1ccc(CC2CC[C@H]([C@H](O)c3cccnc3)N2)cc1` (single isomer, unassigned) [Example 125], the pEC50 is 7.00 to 7.96.

Consider `COCc1nc2c(s1)CCC2C(=O)Nc1ccc(CC2CC[C@H]([C@H](O)c3cccnc3)N2)cc1` (single isomer, unassigned) [Example 126], for which the pEC50 is 6.00 to 7.00.

Regarding `O=C(Nc1ccc(CC2CC[C@H]([C@H](O)c3cccnc3)N2)cc1)C1CCc2cccnc21` (single isomer, unassigned) [Example 127], the pEC50 is 8.00 to 9.00.

On to `O=C(Nc1ccc(CC2CC[C@H]([C@H](O)c3cccnc3)N2)cc1)C1CCc2cccnc21` (single isomer, unassigned) [Example 128], for which the pEC50 is 8.00 to 9.00.

On to `Cc1nc2c(s1)CCC2(C)C(=O)Nc1ccc(CC2CC[C@H]([C@H](O)c3cccnc3)N2)cc1` (single isomer, unassigned) [Example 129], for which the pEC50 was 5.52 to 6.00.

For the molecule `Cc1nc2c(s1)CCC2(C)C(=O)Nc1ccc(CC2CC[C@H]([C@H](O)c3cccnc3)N2)cc1` (single isomer, unassigned) [Example 130], the pEC50 is 6.00 to 7.00.

`Cc1nc2c(s1)CCCC2C(=O)Nc1ccc(CC2CC[C@H]([C@H](O)c3cccnc3)N2)cc1` (single isomer, unassigned) [Example 131]: the pEC50 is 8.00 to 9.00.

As to `Cc1nc2c(s1)CCCC2C(=O)Nc1ccc(CC2CC[C@H]([C@H](O)c3cccnc3)N2)cc1` (single isomer, unassigned) [Example 132], the pEC50 was 6.00 to 7.00.

Turning to `Cc1nc2c(s1)CCCC2C(=O)Nc1ccc(CC2CC[C@H]([C@H](O)c3cccnc3)N2)cc1` (single isomer, unassigned) [Example 133], the pEC50 was 7.00 to 7.96.

In the case of `Cc1nc2c(s1)CCCC2C(=O)Nc1ccc(CC2CC[C@H]([C@H](O)c3cccnc3)N2)cc1` (single isomer, unassigned) [Example 134], the pEC50 was 7.00 to 7.96.

As to `O=C(Cc1nc2c(s1)CCC2C(=O)Nc1ccc(CC2CC[C@H]([C@H](O)c3cccnc3)N2)cc1)NCc1ccccc1` (single isomer, unassigned) [Example 135], the pEC50 was 7.00 to 7.96.

For `O=C(Cc1nc2c(s1)CCC2C(=O)Nc1ccc(CC2CC[C@H]([C@H](O)c3cccnc3)N2)cc1)NCc1ccccc1` (single isomer, unassigned) [Example 136], the pEC50 is 8.00 to 9.00.

On to `O=C(O)c1nc2c(s1)CCC2C(=O)Nc1ccc(CC2CC[C@H]([C@H](O)c3cccnc3)N2)cc1` (single isomer, unassigned) [Example 137], for which the pEC50 was 8.00 to 9.00.

With `O=C(O)c1nc2c(s1)CCC2C(=O)Nc1ccc(CC2CC[C@H]([C@H](O)c3cccnc3)N2)cc1` (single isomer, unassigned) [Example 138], the pEC50 was 7.00 to 7.96.

As to `O=C(Nc1ccc(CC2CC[C@H]([C@H](O)c3cccnc3)N2)cc1)C1CCCc2ccnn21` (single isomer, unassigned) [Example 139], the pEC50 was 6.00 to 7.00.

In the case of `O=C(Nc1ccc(CC2CC[C@H]([C@H](O)c3cccnc3)N2)cc1)C1CCCc2ccnn21` (single isomer, unassigned) [Example 140], the pEC50 was 7.00 to 7.96.

For the molecule `CC(C(=O)Nc1ccc(CC2CC[C@H]([C@H](O)c3cccnc3)N2)cc1)n1cncn1` (single isomer, unassigned) [Example 141], the pEC50 is 8.00 to 9.00.

`CC(C(=O)Nc1ccc(CC2CC[C@H]([C@H](O)c3cccnc3)N2)cc1)n1nccn1` (single isomer, unassigned) [Example 142]: the pEC50 is 8.00 to 9.00.

Turning to `CC(C(=O)Nc1ccc(CC2CC[C@H]([C@H](O)c3cccnc3)N2)cc1)n1nccn1` (single isomer, unassigned) [Example 143], the pEC50 is 8.00 to 9.00.

Turning to `CC(C(=O)Nc1ccc(CC2CC[C@H]([C@H](O)c3cccnc3)N2)cc1)c1cnccn1` (single isomer, unassigned) [Example 144], the pEC50 was 8.00 to 9.00.

With `CC(C(=O)Nc1ccc(CC2CC[C@H]([C@H](O)c3cccnc3)N2)cc1)c1cnccn1` (single isomer, unassigned) [Example 145], the pEC50 was 8.00 to 9.00.

In the case of `CC(F)(C(=O)Nc1ccc(CC2CC[C@H]([C@H](O)c3cccnc3)N2)cc1)c1ccccn1` (single isomer, unassigned) [Example 146], the pEC50 was 7.00 to 7.96.

In the case of `CC(F)(C(=O)Nc1ccc(CC2CC[C@H]([C@H](O)c3cccnc3)N2)cc1)c1ccccn1` (single isomer, unassigned) [Example 147], the pEC50 is 6.00 to 7.00.

In the case of `CC(C(=O)Nc1ccc(CC2CC[C@H]([C@H](O)c3cccnc3)N2)cc1)n1ccnn1` (single isomer, unassigned) [Example 148], the pEC50 is 8.00 to 9.00.

Regarding `CC(C(=O)Nc1ccc(CC2CC[C@H]([C@H](O)c3cccnc3)N2)cc1)n1ccnn1` (single isomer, unassigned) [Example 149], the pEC50 is 8.00 to 9.00.

Regarding `COC(=O)c1cn(C(C)C(=O)Nc2ccc(CC3CC[C@H]([C@H](O)c4cccnc4)N3)cc2)nn1` (single isomer, unassigned) [Example 150], the pEC50 was 8.00 to 9.00.

In the case of `COC(=O)c1cn(C(C)C(=O)Nc2ccc(CC3CC[C@H]([C@H](O)c4cccnc4)N3)cc2)nn1` (single isomer, unassigned) [Example 151], the pEC50 was 7.00 to 7.96.

Turning to `Cc1nnc(C(C)C(=O)Nc2ccc(CC3CC[C@H]([C@H](O)c4cccnc4)N3)cc2)[nH]1` (single isomer, unassigned) [Example 152], the pEC50 was 8.00 to 9.00.

Consider `Cc1nnc(C(C)C(=O)Nc2ccc(CC3CC[C@H]([C@H](O)c4cccnc4)N3)cc2)[nH]1` (single isomer, unassigned) [Example 153], for which the pEC50 is 7.00 to 7.96.
